From patent US8552049B2, “Pyrazolecarboxamide derivatives and their use as microbiocides” (Syngenta Corp Protection, LLC, priority 2010, dated 2013)

Columns and labels:
Puccinia recondita [1] = assay: Curative action against Puccinia recondita (brown rust) on wheat leaf segments; type: in vivo; conditions: foliar, wheat leaf segments sprayed with 0.02% active ingredient one day after inoculation, assessed 8 days after inoculation, read-out: curative fungicidal activity (inhibition)
Description: Curative Action Against Puccinia recondita (Brown Rust) on Wheat Wheat leaf segments were placed on agar in multiwell plates (24-well format) and inoculated with a spore suspension of the fungus. One day after inoculation the leaf segments were sprayed with test solutions (0.02% active ingredient). After appropriate incubation the activity of a compound was assessed 8 days after inoculation as curative fungicidal activity.

[2] = system: Erysiphe graminis f.sp. tritici; assay: Action against Erysiphe graminis f.sp. tritici (wheat powdery mildew), wheat leaf segments; type: in vivo; conditions: Blumeria graminis, foliar, 168 h; wheat leaf segments sprayed with 0.02% active ingredient, assessed 7 days after inoculation; read-out: preventive fungicidal activity (inhibition)
Description: Action Against Erysiphe graminis f.sp. tritici (Wheat Powdery Mildew) Wheat leaf segments were placed on agar in multiwell plates (24-well format) and sprayed with test solutions (0.02% active ingredient). After drying, the leaf disks were inoculated with a spore suspension of the fungus. After appropriate incubation the activity of a compound was assessed 7 days after inoculation as preventive fungicidal activity.

Mycosphaerella arachidis = assay: Action against Mycosphaerella arachidis (early leaf spot of groundnut) - fungal growth assay; type: cell-based; conditions: 0.002% active ingredient, PDB nutrient broth, 24° C., photometrically after 6-7 days
Description: (§1) Action Against Mycosphaerella arachidis (Early Leaf Spot of Groundnut; Cercospora arachidicola [Anamorph])—Fungal Growth Assay Conidia of the fungus from cryogenic storage were directly mixed into nutrient broth (PDB potato dextrose broth). After placing a (DMSO) solution of the test compounds (0.002% active ingredient) into a microtiter plate (96-well format) the nutrient broth containing the fungal spores was added. The test plates were incubated at 24° C. and the inhibition of growth was measured photometrically after 6-7 days. The activity of a compound was expressed as fungal growth inhibition (0=no growth inhibition, ratings of 80% to 99% mean good to very good inhibition, 100%=complete inhibition). Compounds 1.003 and 1.004 show very good activity in this test (≧80% inhibition).

Septoria tritici = assay: Action against Septoria tritici - fungal growth assay; type: cell-based; conditions: Zymoseptoria tritici; 0.002% active ingredient, PDB nutrient broth, 24° C., photometrically after 72 hrs
Description: as §1, with “Septoria tritici—Fungal” for “Mycosphaerella arachidis (Early Leaf Spot of Groundnut; Cercospora arachidicola [Anamorph])—Fungal”, “determined” for “measured”, “72 hrs.” for “6-7 days.”, “inhibition).” for “inhibition). Compounds 1.003 and 1.004 show very good activity in this test (≧80% inhibition).”

Puccinia recondita [3] = assay: Protective action against Puccinia recondita (brown rust) on wheat leaf segments; type: in vivo; conditions: foliar, 192 h, wheat leaf segments sprayed with 0.02% active ingredient, assessed 8 days after inoculation, read-out: preventive fungicidal activity (inhibition)
Description: (§2) Protective Action Against Puccinia recondita (Brown Rust) on Wheat Wheat leaf segments were placed on agar in multiwell plates (24-well format) and sprayed with test solutions (0.02% active ingredient). After drying, the leaf disks were inoculated with a spore suspension of the fungus. After appropriate incubation the activity of a compound was assessed 8 days after inoculation as preventive fungicidal activity.

Pyrenophora teres = assay: Action against Pyrenophora teres (net blotch) on barley leaf segments; type: in vivo; conditions: foliar, 96 h, barley leaf segments sprayed with 0.02% active ingredient, assessed 4 days after inoculation, read-out: preventive fungicidal activity (inhibition)
Description: as §2, with “Action” for “Protective Action”, “Pyrenophora teres (Net Blotch)” for “Puccinia recondita (Brown Rust)”, “Barley Barley” for “Wheat Wheat”, “4” for “8”, “activity. Compounds 1.003 and 1.004 show very good activity in this test (≧80% inhibition).” for “activity.”

Monographella nivalis = assay: Action against Monographella nivalis (snow mould) - fungal growth assay; type: cell-based; conditions: 0.002% active ingredient, PDB nutrient broth, 24° C., photometrically after 72 hrs
Description: Action Against Monographella nivalis (Anamorph: Fusarium nivale, Microdochium nivale; Snow Mould)—Fungal Growth Assay Conidia of the fungus from cryogenic storage were directly mixed into nutrient broth (PDB potato dextrose broth). After placing a DMSO-solution of the test compounds (0.002% active ingredient) into a microtiter plate (96-well format) the nutrient broth containing the fungal spores was added. The test plates were incubated at 24° C. and the inhibition of growth was measured photometrically after 72 hrs (0=no growth inhibition, ratings of 80% to 99% mean good to very good inhibition, 100%=complete inhibition).

Botrytis cinerea = assay: Action against Botrytis cinerea - fungal growth assay; type: cell-based; conditions: 0.002% active ingredient, PDB nutrient broth, 24° C., photometrically after 3-4 days
Description: as §1, with “Against Botrytis cinerea—Fungal” for “Against Mycosphaerella arachidis (Early Leaf Spot of Groundnut; Cercospora arachidicola [Anamorph])—Fungal”, “storage was” for “storage were”, “after 3-4” for “after 6-7”

melting point [°C]	Structure (SMILES)	inhibition at 0.02 % strength (Puccinia recondita [1]) [%]	inhibition at 0.02 % strength [2] [%]	inhibition at 0.002 % strength (Mycosphaerella arachidis) [%]	inhibition at 0.002 % strength (Septoria tritici) [%]	inhibition at 0.02 % strength (Puccinia recondita [3]) [%]	inhibition at 0.02 % strength (Pyrenophora teres) [%]	inhibition at 0.002 % strength (Monographella nivalis) [%]	inhibition at 0.002 % strength (Botrytis cinerea) [%]
–	CON(C(=O)c1cn(C)nc1C(F)F)C(CF)Cc1ccc(Cl)cc1Cl (stereo not drawn) [Compound 1.003, 3-difluoromethyl-1-methyl-1H-pyrazole-4-carboxylic acid [2-(2,4-dichloro-phenyl)-1-fluoromethyl-ethyl]-methoxy-amide]	≥ 80	≥ 80	≥ 80	≥ 80	≥ 80	≥ 80	≥ 80	≥ 80
117 to 118	CON(C(=O)c1cn(C)nc1C(F)F)C(CF)Cc1c(Cl)cc(Cl)cc1Cl (stereo not drawn) [Compound 1.004, 3-difluoromethyl-1-methyl-1H-pyrazole-4-carboxylic acid [1-fluoromethyl-2-(2,4,6-trichlorophenyl)-ethyl]-methoxy-amide]	≥ 80	≥ 80	≥ 80	≥ 80	≥ 80	≥ 80	≥ 80	≥ 80
131 to 133	CON(C(=O)c1cn(C)nc1C(F)(F)F)C(CF)Cc1c(Cl)cc(Cl)cc1Cl (stereo not drawn) [Compound 3.004, 1-methyl-3-trifluoromethyl-1H-pyrazole-4-carboxylic acid [1-fluoromethyl-2-(2,4,6-trichlorophenyl)-ethyl]-methoxy-amide]	–	–	–	–	–	–	–	–
